The values that follow come from PubChem BioAssay (NCI).

Some test systems named below: K-562 leukemia; MOLT-4 leukemia; SW-620 colon; SK-MEL-2 melanoma; SF-295 CNS; NCI-H522 lung; SF-539 CNS; HS 578T breast; TK-10 renal; IGROV1 ovarian.
Assay in all cases: NCI-60 cell line screen, 48 h

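Step 1: Grow cells in 96-well plates. Step 2: Expose to compound for 48 hours at 5 concentrations. Step 3: Interpolate endpoints linearly; if unreached, use highest concentration. GI50 = concentration required for 50% inhibition of growth. TGI: concentration producing complete growth inhibition.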 Bounds are passed on as bounds.

For `CCCCNNC(=O)c1ccc(Br)cc1`, the GI50 is 2.02 µM in the experiment on K-562 leukemia; 2.51 µM with MOLT-4 leukemia; 2.17 µM in the experiment on SW-620 colon; 1.83 µM in the experiment on SK-MEL-2 melanoma; 2.54 µM with SF-295 CNS; 1.27 µM with NCI-H522 lung. Besides, the GI50 in the experiment with SF-539 CNS was 1.76 µM; in the experiment on HS 578T breast, 4.27 µM; in the experiment on TK-10 renal, 1.31 µM; in the experiment on IGROV1 ovarian, 8.35 µM. The TGI is greater than 50 µM in the experiment on K-562 leukemia; greater than 50 µM with MOLT-4 leukemia; greater than 50 µM in the experiment with SW-620 colon; greater than 39.9 µM in the experiment on SK-MEL-2 melanoma; 14.7 µM in the experiment on SF-295 CNS; greater than 22 µM with NCI-H522 lung. Besides, the TGI was greater than 50 µM with SF-539 CNS, greater than 50 µM in the experiment on HS 578T breast, 12.2 µM in the experiment on TK-10 renal and greater than 50 µM with IGROV1 ovarian.
Take `CCOc1ccc2c(-c3ccnc(Nc4cc(OC)cc(C(F)(F)F)c4)n3)cnn2n1`: the GI50 in the experiment with K-562 leukemia is 1.97 µM; in the experiment on MOLT-4 leukemia, greater than 25 µM; in the experiment on SW-620 colon, 13 µM; in the experiment on SK-MEL-2 melanoma it was greater than 25 µM; in the experiment on SF-295 CNS, greater than 14.6 µM; in the experiment with NCI-H522 lung, 1.85 µM. For the same compound, the GI50 was 5.96 µM with SF-539 CNS, greater than 17.4 µM with HS 578T breast, greater than 16.3 µM with TK-10 renal and 4.87 µM with IGROV1 ovarian. Besides, the TGI is greater than 25 µM in the experiment on K-562 leukemia; greater than 25 µM with MOLT-4 leukemia; greater than 25 µM in the experiment on SW-620 colon; greater than 25 µM in the experiment with SK-MEL-2 melanoma; greater than 25 µM with SF-295 CNS; greater than 10.9 µM in the experiment on NCI-H522 lung. The TGI was greater than 14.7 µM in the experiment with SF-539 CNS, greater than 25 µM in the experiment on HS 578T breast, greater than 25 µM in the experiment on TK-10 renal and greater than 25 µM with IGROV1 ovarian.
Regarding `N#Cc1nc(-c2ccc(F)cc2)oc1S(=O)(=O)N1CCCCC1`, the GI50 in the experiment on K-562 leukemia is 2.43 µM; in the experiment on MOLT-4 leukemia, 2.22 µM; with SW-620 colon, 1.89 µM; in the experiment with SK-MEL-2 melanoma, 2.03 µM; in the experiment with SF-295 CNS, 14.1 µM; in the experiment on NCI-H522 lung it was 0.927 µM. The GI50 was 1.73 µM with SF-539 CNS, 2.24 µM with HS 578T breast, 1.78 µM with TK-10 renal and 1.75 µM in the experiment on IGROV1 ovarian. Besides, the TGI with K-562 leukemia was greater than 100 µM; in the experiment on MOLT-4 leukemia, 8.21 µM; in the experiment with SW-620 colon, 4.11 µM; with SK-MEL-2 melanoma, 4.92 µM; with SF-295 CNS it was 27.4 µM; with NCI-H522 lung, 3.1 µM. Besides, the TGI came to 3.12 µM with SF-539 CNS, 5.74 µM in the experiment on HS 578T breast, 3.27 µM with TK-10 renal and 3.5 µM in the experiment with IGROV1 ovarian.
